Data reported in patent US20150284375A1 (AJINOMOTO CO., INC., priority 2012, published 2015).

Target: T1, human TRPA1 (Homo sapiens, UniProt O75762)
T1 construct: expressed in transfected cells; host or cells: Human embryonic kidney-derived 293T cells, transiently transfected with the pcDNA3.1/zeo(+) human TRPA1 plasmid
Test: Measurement of TRPA1 antagonist activity (intracellular calcium increase, FLIPR, allylisothiocyanate stimulation)
Format: cell-based
Settings: allylisothiocyanate 20 μM stimulation, FLIPR calcium assay; read-out: antagonism hTRPA1
Outline: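 IC50 derives from a sigmoid fit of inhibition of the 5-min FLIPR fluorescence change evoked by 20 μM allylisothiocyanate, normalized between agonist and buffer responses. Test substance, diluted in HBSS/20 mM HEPES pH 7.2 plus 0.1% BSA, was applied 10 min beforehand at room temperature to Calcium4-loaded 293T cells transiently expressing human TRPA1.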

T1 sequence (O75762 whole entry): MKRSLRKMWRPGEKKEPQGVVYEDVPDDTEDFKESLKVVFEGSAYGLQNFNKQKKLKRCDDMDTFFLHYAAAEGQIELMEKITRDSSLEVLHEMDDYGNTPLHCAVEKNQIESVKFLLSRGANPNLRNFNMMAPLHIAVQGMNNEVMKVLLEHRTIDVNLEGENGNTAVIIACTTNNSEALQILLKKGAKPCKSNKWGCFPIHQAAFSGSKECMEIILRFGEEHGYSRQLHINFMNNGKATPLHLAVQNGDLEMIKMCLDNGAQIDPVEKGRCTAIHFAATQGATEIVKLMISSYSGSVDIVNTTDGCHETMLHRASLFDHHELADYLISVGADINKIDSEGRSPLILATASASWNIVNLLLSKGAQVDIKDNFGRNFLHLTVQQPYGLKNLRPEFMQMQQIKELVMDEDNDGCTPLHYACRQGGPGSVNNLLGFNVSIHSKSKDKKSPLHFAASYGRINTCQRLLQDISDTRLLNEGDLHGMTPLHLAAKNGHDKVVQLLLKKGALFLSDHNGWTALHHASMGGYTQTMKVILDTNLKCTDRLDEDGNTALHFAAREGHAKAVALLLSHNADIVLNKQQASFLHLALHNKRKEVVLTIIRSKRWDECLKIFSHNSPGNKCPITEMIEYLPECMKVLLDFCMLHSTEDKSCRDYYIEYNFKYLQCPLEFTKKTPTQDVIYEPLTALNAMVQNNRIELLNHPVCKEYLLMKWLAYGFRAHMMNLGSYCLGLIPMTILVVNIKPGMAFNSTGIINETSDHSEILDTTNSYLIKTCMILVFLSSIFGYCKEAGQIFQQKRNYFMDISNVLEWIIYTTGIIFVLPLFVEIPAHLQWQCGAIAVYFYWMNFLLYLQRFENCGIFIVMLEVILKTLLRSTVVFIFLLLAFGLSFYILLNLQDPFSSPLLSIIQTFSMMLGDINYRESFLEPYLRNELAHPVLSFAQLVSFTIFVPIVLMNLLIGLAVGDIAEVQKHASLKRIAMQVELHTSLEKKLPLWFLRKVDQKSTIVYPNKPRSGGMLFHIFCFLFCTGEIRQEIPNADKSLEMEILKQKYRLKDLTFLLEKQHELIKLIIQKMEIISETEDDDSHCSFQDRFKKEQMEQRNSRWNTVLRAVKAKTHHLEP

SMILES	IC50
O=C(NCc1cccc(OCc2ccc(C(F)(F)F)cc2)c1)[C@@H]1CCCN1S(=O)(=O)c1cncs1 [Example 217, (2S)-1-thiazol-5-ylsulfonyl-N-[[3-[[4-(trifluoromethyl)phenyl]methoxy]phenyl]methyl]pyrrolidine-2-carboxamide]	940 nM
O=C(NCc1cccc(OCc2ccc(C(F)(F)F)cc2)c1)[C@@H]1CCCN1S(=O)(=O)c1cscn1 [Example 218, (2S)-1-thiazol-4-ylsulfonyl-N-[[3-[[4-(trifluoromethyl)phenyl]methoxy]phenyl]methyl]pyrrolidine-2-carboxamide]	830 nM
O=C(NCc1cccc(OCc2ccc(C(F)(F)F)cc2)c1)[C@@H]1CCCN1S(=O)(=O)c1nc2ccccc2s1 [Example 219, (2S)-1-(1,3-benzothiazol-2-ylsulfonyl)-N-[[3-[[4-(trifluoromethyl)phenyl]methoxy]phenyl]methyl]pyrrolidine-2-carboxamide]	120 nM
O=C(NCc1cccc(OCc2ccc(C(F)(F)F)cc2)c1)[C@@H]1CCCN1S(=O)(=O)n1ccnc1 [Example 220, (2S)-1-imidazol-1-ylsulfonyl-N-[[3-[[4-(trifluoromethyl)phenyl]methoxy]phenyl]methyl]pyrrolidine-2-carboxamide]	190 nM
